As usually defined, the IC50 is the concentration that gives 50% inhibition.

IC50 and Activity data for 36 compounds are collected here from ChEMBL document CHEMBL1671721, “Chemical validation of phosphodiesterase C as a chemotherapeutic target in Trypanosoma cruzi, the etiological agent of Chagas' disease” (Antimicrob Agents Chemother, 2010).

Each structure is given as a SMILES string.

Data set [1] has as its target T1, Cyclic nucleotide specific phosphodiesterase (Trypanosoma cruzi, UniProt Q53I59).
T1 sequence (Q53I59 whole entry): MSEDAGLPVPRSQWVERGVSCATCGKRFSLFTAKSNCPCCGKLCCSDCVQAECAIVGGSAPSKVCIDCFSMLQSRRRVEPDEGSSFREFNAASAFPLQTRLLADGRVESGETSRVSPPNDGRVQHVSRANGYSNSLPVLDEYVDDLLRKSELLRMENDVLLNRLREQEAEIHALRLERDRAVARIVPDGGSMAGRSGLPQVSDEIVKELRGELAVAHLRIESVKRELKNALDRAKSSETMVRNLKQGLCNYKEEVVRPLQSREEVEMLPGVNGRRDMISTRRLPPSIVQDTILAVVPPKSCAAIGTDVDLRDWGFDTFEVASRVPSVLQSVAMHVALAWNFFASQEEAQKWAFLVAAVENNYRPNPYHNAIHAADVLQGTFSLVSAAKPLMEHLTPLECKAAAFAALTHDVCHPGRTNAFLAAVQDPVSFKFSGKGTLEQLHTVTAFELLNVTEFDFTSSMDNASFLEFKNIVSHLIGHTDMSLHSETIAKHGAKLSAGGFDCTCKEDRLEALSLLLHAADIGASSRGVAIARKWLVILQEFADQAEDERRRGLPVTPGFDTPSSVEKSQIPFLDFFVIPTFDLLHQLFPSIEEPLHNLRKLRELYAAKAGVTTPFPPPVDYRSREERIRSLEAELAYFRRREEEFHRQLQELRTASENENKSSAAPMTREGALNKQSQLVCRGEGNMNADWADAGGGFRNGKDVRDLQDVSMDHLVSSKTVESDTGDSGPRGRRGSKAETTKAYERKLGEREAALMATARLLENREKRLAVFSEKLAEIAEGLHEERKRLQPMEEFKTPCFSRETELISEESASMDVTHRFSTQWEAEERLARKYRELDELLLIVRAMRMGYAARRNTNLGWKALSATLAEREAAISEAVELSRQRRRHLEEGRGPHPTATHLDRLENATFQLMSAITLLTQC
Kind of data set: Inhibition of Trypanosoma cruzi Y PDEC after 30 mins.

Another data set concerns Trypanosoma cruzi. Kind of data set: Antimicrobial activity against Trypanosoma cruzi Y infected in rat L6E9 myoblasts assessed as inhibition of [5,6-3H]uracil incorporation after 3 days postinfection by scintillation counter. Format: functional, organism-based.
Data set [2] can be described thus: Cytotoxicity against rat L6E9 myoblasts at 1 to 25 uM.
The next data set addresses Phosphodiesterase 4 (Homo sapiens, UniProt P27815+Q08499+Q07343+Q08493). Kind of data set: Inhibition of human PDE4 after 30 mins. Format: protein assay.

Consider `COC(OC)c1ccc(C#N)c(SCC(=O)c2ccc(Cl)cc2)n1`, for which the half-maximal inhibitory concentration (IC50) (in data set [1]; with Trypanosoma cruzi) was > 10 µM each time. For the same compound, the Activity result in data set [2] is reported as “Non-toxic”.
Turning to `COc1ccc(C(=O)CCc2ccccc2)cc1OC1CCOC1` (stereo not drawn), the IC50 was > 10 µM in data set [1], 5.6 µM in the data set on Trypanosoma cruzi and 2.3 µM against Phosphodiesterase 4. The Activity result in data set [2] is reported as “Non-toxic”.
On to `CCCC(=O)c1ccc(OC(F)F)c(Oc2ccccn2)c1`, for which the figures for the IC50 (in data set [1]; in the data set on Trypanosoma cruzi; against Phosphodiesterase 4) were 3.5 µM, 10.3 µM and 40 µM, respectively. Moreover, the Activity entry in data set [2] is “Non-toxic”.
Take `O=C(SCc1ccco1)c1csc(C2COc3ccccc3O2)n1` (stereo not drawn): the 50% inhibitory concentration (IC50) in data set [1] is > 10 µM; in the data set on Trypanosoma cruzi, 25 µM. Besides, the Activity entry in data set [2] was “Non-toxic”.
On to `CCCC(c1ccc(Oc2ccccn2)c(OC)c1)c1cnc2ccccc2c1` (stereo not drawn), for which the half-maximal inhibitory concentration (IC50) was 3.3 µM in data set [1], 1.9 µM with Trypanosoma cruzi and 6 µM on Phosphodiesterase 4. For the same compound, in data set [2], the Activity result is “Non-toxic”.
On to `COc1ccc(C(=O)CC2CCCCC2)cc1OC1CCOC1` (stereo not drawn), for which the half-inhibitory concentration (IC50) in data set [1] was found to be 4.9 µM; with Trypanosoma cruzi, 1.7 µM; on Phosphodiesterase 4, 2.6 µM. For the same compound, the Activity result in data set [2] is listed as “Non-toxic”.
For the compound `CC(C)(C)c1cc2ncnc(NNC(=O)c3cccs3)c2s1` [GK03671], the half-maximal inhibitory concentration (IC50) in data set [1] came out at 6.3 µM; in the data set with Trypanosoma cruzi, 4.8 µM. In data set [2], the Activity result is listed as “Non-toxic”.
Taken in the same sequence, the figures for `O=S(=O)(Cc1ccco1)Cc1nc(-c2ccccc2)cs1` were 3.8 µM, 25 µM and “Non-toxic”.
As to `O=C(CCCc1ccccc1)c1ccc(OC(F)F)c(OC(F)F)c1`, the IC50 in data set [1] was 2.5 µM; in the data set on Trypanosoma cruzi, 7.7 µM; against Phosphodiesterase 4, 44 µM. Moreover, the Activity result in data set [2] is “Non-toxic”.
Take `O=Cc1ccc(OC(F)F)c(O)c1`: the IC50 was > 10 µM in data set [1] and 11 µM in the data set with Trypanosoma cruzi. Moreover, the Activity result in data set [2] is listed as “Non-toxic”.
As for `O=C(CCc1ccccc1)c1ccc(OC(F)F)c(OC2CCOC2)c1` (stereo not drawn), the IC50 in data set [1] was 2.5 µM; in the data set with Trypanosoma cruzi, 3.1 µM; against Phosphodiesterase 4, 0.18 µM. Besides, the Activity entry in data set [2] was “Non-toxic”.
As to `O=C(NCc1csc(-c2cccs2)n1)C1=Cc2ccccc2OC1` [SCR 01311], the half-inhibitory concentration (IC50) turned out to be 10 µM in data set [1] and 25 µM with Trypanosoma cruzi. The Activity entry in data set [2] is “Non-toxic”.
Taken in the same sequence, the figures for `O=C(COc1ncnc2cc(Cl)ccc12)Nc1ccccc1Cl` were > 10 µM, > 10 µM and “Non-toxic”.
The matching figures for `NNC(=O)c1csc(COc2ccc(C3SCCS3)cc2)n1`: > 10 µM, > 10 µM and “Non-toxic”.
Turning to `O=C(CCCc1ccccc1)c1ccc(OC(F)F)c(OC2CCOC2)c1` (stereo not drawn), the 50% inhibitory concentration (IC50) in data set [1] was found to be 3.2 µM; in the data set with Trypanosoma cruzi, 3.1 µM; on Phosphodiesterase 4, 0.626 µM. The Activity result in data set [2] is on record as “Non-toxic”.
As to `O=C1CC(Sc2ccc(Cl)cc2)C(=O)N1Cc1ccncc1` (stereo not drawn), the concentration for half-maximal inhibition (IC50) in data set [1] is 10 µM; in the data set on Trypanosoma cruzi, > 10 µM. In addition, the Activity entry in data set [2] was “Non-toxic”.
For `O=C(CN1CCc2ccccc21)Nc1nnc(-c2cccs2)s1`, the 50% inhibitory concentration (IC50) (in data set [1]; in the data set with Trypanosoma cruzi) was > 10 µM each time. Moreover, in data set [2], the Activity entry is “Non-toxic”.
For `O=C(CC1CCCCC1)c1ccc(OC(F)F)c(OC2CCOC2)c1` (stereo not drawn), the results for the IC50 (in data set [1]; with Trypanosoma cruzi; at Phosphodiesterase 4) were 2.5 µM, 4.4 µM and 0.667 µM, respectively. In addition, the Activity entry in data set [2] was “Non-toxic”.
Turning to `O=C1c2ccccc2S(=O)(=O)N1Cc1nc2ccccc2s1`, the IC50 in data set [1] came to 5.5 µM; with Trypanosoma cruzi, 3.3 µM. Also, in data set [2], the Activity entry is “Non-toxic”.
For `COc1ccc(C(=O)CCC2CCCCC2)cc1OC1CCOC1` (stereo not drawn), the IC50 was > 10 µM in data set [1], 6.1 µM with Trypanosoma cruzi and 1.9 µM on Phosphodiesterase 4. Also, the Activity result in data set [2] was “Non-toxic”.
The matching figures for `O=C(CCC1CCCCC1)c1ccc(OC(F)F)c(OC2CCOC2)c1` (stereo not drawn): 5.3 µM, 5.8 µM, 1.1 µM and “Non-toxic”.
For `CCCC(O)c1ccc(OC)c(OC2CCOCC2)c1` (stereo not drawn), the figures for the concentration for half-maximal inhibition (IC50) (in data set [1]; in the data set with Trypanosoma cruzi; on Phosphodiesterase 4) were > 10 µM, 10 µM and 100 µM, respectively. Also, the Activity result in data set [2] is recorded as “Non-toxic”.
Taken in the same sequence, the figures for `O=C(CCc1ccccc1)c1ccc(OC(F)F)c(OC(F)F)c1` were 2.2 µM, 2.3 µM, 0.082 µM and “Non-toxic”.
Consider `CCOC(=O)c1nc(C)nc(Sc2nnc(-c3ccccc3)[nH]2)c1C`, for which the 50% inhibitory concentration (IC50) was determined as 4.6 µM in data set [1] and 6.4 µM in the data set with Trypanosoma cruzi. Further, the Activity result in data set [2] is listed as “Non-toxic”.
In the case of `CCCCC(=O)c1ccc(OC2CCN(C(=O)OC(C)(C)C)CC2)c(OC)c1`, the half-inhibitory concentration (IC50) is 3.1 µM in data set [1], 3.8 µM in the data set with Trypanosoma cruzi and 93 µM on Phosphodiesterase 4. Further, in data set [2], the Activity result is “Non-toxic”.
The matching figures for `CCCC(=O)c1ccc(OC)c(OC2CCOC2)c1` (stereo not drawn): > 10 µM, 68 µM, 0.43 µM and “Non-toxic”.
With `CCCC(O)(C(=O)c1ccc(OC(F)F)c(Oc2ccccn2)c1)c1cnc2ccccc2c1` (stereo not drawn), the concentration for half-maximal inhibition (IC50) is 3.9 µM in data set [1], 3.8 µM with Trypanosoma cruzi and 6 µM on Phosphodiesterase 4. Besides, the Activity result in data set [2] is “Non-toxic”.
The matching figures for `CCCCC(=O)c1ccc(OC)c(OC2CCOCC2)c1`: > 10 µM, 2.1 µM, 0.72 µM and “Non-toxic”.
Take `C=CCn1c(=S)sc2c(Sc3nnc(-c4ccco4)o3)ncnc21`: the IC50 was found to be 7 µM in data set [1] and 5.4 µM with Trypanosoma cruzi. In addition, the Activity entry in data set [2] is given as “Non-toxic”.
The matching figures for `O=S(=O)(Cc1noc(-c2cccs2)n1)c1ccc(F)cc1`: > 10 µM, > 10 µM and “Non-toxic”.
On to `O=C(CC1CCCCC1)c1ccc(OC(F)F)c(OC(F)F)c1`, for which the results for the IC50 (in data set [1]; in the data set on Trypanosoma cruzi; at Phosphodiesterase 4) were 5.4 µM, 5.7 µM and 5.2 µM, respectively. Moreover, the Activity result in data set [2] was “Non-toxic”.
The matching figures for `CCCC(=O)c1ccc(OC2CCOC2)c(OC)c1` (stereo not drawn): 5.6 µM, 3.7 µM, 24 µM and “Non-toxic”.
As to `CC(C)CC(=O)c1ccc(OC(F)F)c(OC2CCCC2)c1`, the figures for the IC50 (in data set [1]; in the data set with Trypanosoma cruzi; at Phosphodiesterase 4) were 3.2 µM, 3.6 µM and 0.022 µM, respectively. In addition, in data set [2], the Activity entry is “Non-toxic”.
Turning to `Fc1ccccc1Nc1ncnc2c1nnn2Cc1ccccc1`, the IC50 (in data set [1]; in the data set on Trypanosoma cruzi) was > 10 µM in each case. In addition, the Activity result in data set [2] is recorded as “Non-toxic”.
Consider `CCCC(O)c1ccc(OC)c(OC2CCOC2)c1` (stereo not drawn), for which the 50% inhibitory concentration (IC50) in data set [1] was > 10 µM; with Trypanosoma cruzi, 471 µM; against Phosphodiesterase 4, 100 µM. For the same compound, the Activity entry in data set [2] is given as “Non-toxic”.
As for `COc1ccc(C=O)cc1OC1CCOC1` (stereo not drawn), the half-inhibitory concentration (IC50) in data set [1] is > 10 µM; in the data set with Trypanosoma cruzi, 122 µM. Further, the Activity result in data set [2] was “Non-toxic”.
